Assay in all cases: DTP human tumour cell line panel, 48 h
Assay [1] concerns MDA-MB-231 breast.
Assay [2] relates to IGROV1 ovarian.
The test system of assay [3] is SK-MEL-2 melanoma.
Assay [4] concerns MDA-MB-435.
For assay [5], the system named is M14 melanoma.
Assay [6] has as its system MALME-3M melanoma.
Assay [7] deals with CCRF-CEM leukemia.
Assay [8] relates to CAKI-1 renal.
The test system of assay [9] is U251 CNS.
Assay [10] has as its system NCI-H522 lung.

Values joined by “and” are separate entries in the source; they are usually repeats but may differ in a detail not shown here. Equal entries are not always repeated.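 Exposure lasted 48 hours, with cells grown in 96-well plates and compounds tested at five concentrations. GI50: concentration for 50% inhibition of growth. TGI denotes the concentration required for complete inhibition of growth.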 Where only a bound is given, the exact number is not on record here.

`O=S(=O)(NCCNc1cc(-c2cn(-c3ccccc3)nc2-c2cccc(O)c2)ccn1)c1ccc(Br)cc1`: the GI50 (in general, the concentration that inhibits growth by half) in assay [1] is 1.9 µM; in assay [2], 3.33 µM; in assay [3], 2.3 µM; in assay [4], 1.79 µM; in [5], 2.02 µM; in assay [6], 2.08 µM. The GI50 in [7] was 2.1 µM; in assay [8], 3.42 µM; in assay [9], 2.21 µM; in assay [10], 2.02 µM. For the same compound, the TGI (in general, the concentration giving total growth inhibition) was found to be 4.59 µM in assay [1]; 15.5 µM in assay [2]; 4.79 µM in assay [3]; 3.65 µM in assay [4]; 5.04 µM in assay [5]; 5.08 µM in [6]. For the same compound, the TGI in assay [7] worked out at 6.06 µM; in [8], 20.4 µM; in assay [9], 5.64 µM; in assay [10] it was 4.69 µM.

As to `CN1CCN(Cc2ccc(NC(=O)c3cccc(C#Cc4c(N)ncc5ccc(F)cc45)c3)cc2C(F)(F)F)CC1`, the GI50 in assay [1] is 0.545 µM; in assay [2], 0.597 µM; in [3], 0.923 µM; in assay [4], 0.763 µM; in assay [5] it was 0.463 µM; in assay [6], 0.569 µM. The GI50 was 0.989 µM in [7], 0.727 µM in assay [8], 0.833 µM in assay [9] and 0.756 µM in assay [10]. In addition, the TGI in [1] was 1.21 µM; in assay [2], 1.4 µM; in assay [3] it was 2.09 µM; in [4], 1.47 µM; in [5] it was 1.24 µM; in assay [6], 1.35 µM. Further, the TGI in assay [7] turned out to be 2.58 µM; in [8] it was 1.43 µM; in assay [9], 1.6 µM; in assay [10], 1.53 µM.

`COCC(=O)NC/C=C/c1ccc2ncnc(Nc3ccc(Oc4ccc(C)nc4)c(C)c3)c2c1`: the GI50 in assay [1] was 12.7 µM; in assay [2] it was 15.9 µM; in assay [3] it was 18.5 µM; in assay [4] it was 11.4 µM; in [5] it was 11.4 µM; in [6] it was 14.4 µM. Also, the GI50 in assay [7] was 14 µM; in [8] it was 3.31 µM; in assay [9], 13.2 µM; in assay [10] it was 3.4 µM. The TGI is 36.1 µM in assay [1]; over 89.2 µM in [2]; 41.7 µM in [3]; 29.9 µM in assay [4]; 31 µM in assay [5]; 35.4 µM in assay [6]. For the same compound, the TGI in assay [7] is over 79.9 µM; in assay [8], 49.5 µM; in [9], 31.9 µM; in [10], 25.8 µM.

With `CCC1(N)C(=O)OCc2c1cc1n(c2=O)Cc2cc3ccccc3nc2-1` (stereo not drawn), the GI50 is 49.3 µM in assay [1]; 15.6 µM in [2]; 48.8 µM in assay [3]; 21.1 µM in assay [4]; 24.5 µM in assay [6]; 1.96 µM in assay [7]. The GI50 in assay [8] was 3.26 µM; in assay [9], 4.9 µM; in [10], 8.51 µM. Also, the TGI in assay [1] is over 100 µM; in assay [2] it was over 100 µM; in assay [3], over 100 µM; in assay [4], over 100 µM; in assay [5] it was 54 µM and > 100 µM; in [6], over 100 µM. For the same compound, the total growth inhibition concentration (TGI) is > 52.2 µM and 45.9 µM in [8]; over 100 µM in assay [9]; over 100 µM in assay [10].

For the compound `CC(C)=CCc1c(O)c(C(=O)CC(C)C)c(O)c2c(-c3ccccc3)cc(=O)oc12`, the GI50 in [1] was 8.26 µM; in assay [2], 9.7 µM; in assay [3] it was 6.18 µM; in assay [4] it was 11.8 µM; in assay [5], 11.5 µM; in [6], 10.8 µM. The GI50 in assay [7] is 5.11 µM; in assay [8], 11 µM; in assay [9], 9.59 µM; in assay [10] it was 7.02 µM. The TGI is 22 µM in assay [1]; over 50 µM in assay [2]; 28.7 µM in [3]; over 50 µM in assay [4]; over 50 µM in [5]; 33.9 µM in assay [6]. Also, the TGI is over 50 µM in assay [7], 48.3 µM in assay [8], over 50 µM in assay [9] and 28.2 µM in assay [10].

Consider `Cc1ccc2c(c1)-c1oc(=O)c(-c3cc4ccccc4oc3=O)cc1C(O)O2` (stereo not drawn), for which the GI50 was 15.2 µM in assay [1]; 17.4 µM in [2]; 16.9 µM in assay [3]; 19.2 µM in assay [4]; 21.4 µM in [5]; 10.2 µM in assay [6]. In addition, the GI50 is 42.2 µM in [7], 20.5 µM in [8], 13.2 µM in assay [9] and 19.4 µM in assay [10]. In addition, the TGI in assay [1] was found to be 43.7 µM; in [2], 52.1 µM; in [3], 42.1 µM; in assay [4], 45.6 µM; in assay [5], 40.6 µM; in assay [6] it was 28.2 µM. Further, the concentration for total growth inhibition (TGI) in assay [7] was over 100 µM; in [8], 46.7 µM; in assay [9], 26.6 µM; in [10] it was 48.1 µM.

As to `O=C(Nc1ccc(N2CCNCC2)cn1)c1[nH]ncc1Nc1ncnc2sccc12`, the GI50 in assay [1] was 1.68 µM; in assay [2], 4.27 µM; in assay [3], 7.72 µM; in [4], 1.59 µM; in assay [5], 1.86 µM; in assay [6], 1.43 µM. Besides, the GI50 in [7] was 1.25 µM; in assay [8], 3.89 µM; in assay [9], 1.62 µM; in [10] it was 1.87 µM. Moreover, the TGI came to 3.36 µM in [1]; 24.6 µM in assay [2]; 25.9 µM in assay [3]; 3.12 µM in [4]; 3.65 µM in assay [5]; 3.19 µM in assay [6]. Also, the total growth inhibition concentration (TGI) in [7] was 6.97 µM; in assay [8] it was over 100 µM; in [9], 3.35 µM; in [10] it was 4.36 µM.

The record behind these values is PubChem BioAssay (NCI).
